# Test results reported in US20130084640A1, “ANIMAL CELL CULTURE MEDIA COMPRISING NON ANIMAL OR PLANT DERIVED NUTRIENTS” (LIFE TECHNOLOGIES CORPORATION, priority 1999, published 2013).
# Tested on: VERO cells
# Test: VERO cell growth in basal medium with non-animal supplements (mean cell count over subcultures, RGE)
# Type: cell-based
# Experimental: No attachment factors or coating of the plastic surface are required for the culture of VERO cells. At 3 to 4 days the cells were removed using standard cell culture techniques. The surface of the culture was first washed with Dulbecco's Phosphate Buffered Saline (DPBS) and then 1.0 ml Trypsin-EDTA (Life Technologies, Inc., Rockville, Md.) was added. The digest was allowed to sit on the cell surface for 3 to 5 minutes or until the cells rounded up and began to detach from the surface of the flask. The cells were completely detached by vigorous agitation against the palm of the hand and then 1.5 ml of soybean trypsin inhibitor was added to quickly neutralize enzymatic activity. The cells were counted under the microscope using trypan blue straining solution and new cultures plated at 2.5×10^3 cells per 25 cm^2 flask. Incubation was at 37° C. in 5% CO^2 in air. The cultures were passaged for a total of 4 subcultures and the mean cells per subculture determined from the counts of the final 3 subcultures (P2+P3+P4[…]). Initial studies were designed to formulate a culture medium completely devoid of animal proteins that supports the culture of animal cells. To this end, enzymatic hydrolysates of a variety of non-animal sources were examined as supplements in the basal medium described in Example 1. Hydrolysates of wheat gluten (HYPEP 4301 I, designated below us “Wheat Hydrolysate 1”, and HYPEP 8382, designated below as “Wheat Hydrolysate 2”). soy (HY—SOY) and rice (HYPEP 5115), as well as an extract of baker's yeast (HY-YEST 444) were obtained from Quest International (Norwich, N.Y.) and were formulated into the basal medium of Example 1 at 200 mg/liter. […] To more closely examine their efficacy as supplements for the present media, rice hydrolysates were supplemented into basal media at differing concentrations. These media were then used to examine VERO cell growth as described above. Cell counts were compared to those obtained in basal medium that was unsupplemented (negative control) or to Earle's Modified Eagle's Medium (EMEM) supplemented with 5% fetal bovine serum (FBS; positive control). […] To examine additional sources of non-animal peptides and vitamins as supplements for the present media, extracts of yeast, soy and potato were obtained from Quest International (Norwich, N.Y.) and were supplemented into basal media at differing concentrations. Yeast extract (YE) was also examined as a co-supplement with rice hydrolysate. These media were then used to examine VERO cell growth as described above. Cell counts were compared to those obtained with EMEM supplemented with 5% FBS. […] RGE was calculated as described in Example 2. To more closely examine the use of yeast extract as a supplement in the present media, preparations of YE or an ultrafiltrate of YE (“YEU”) were supplemented into basal media in the presence or absence of 100 mg/liter of rice hydrolysate. These media were then used to examine VERO cell growth as described above. Cell counts were compared to those obtained in EMEM supplemented with 5% FBS (positive control). […] RGE was calculated as described in Example 2. […] These media were then used to examine VERO cell growth as described above. Cell counts were compared to those obtained in basal medium that was unsupplemented (negative control) or to EMEM supplemented with 5% FBS (positive control). […] RGE was calculated as described in Example 2. […] The results in this table represent the mean cells per 25 cm^2 flask in duplicate over 4 subcultures.
substance,measurement,setting,value
EGF: recombinant human EGF (epidermal growth factor),Mean Cell Count,"Table 6, 0.5 mg/L in basal medium",8.0 × 10^5
same,RGE,"Table 6, 0.5 mg/L, relative to 5% FBS control",34
same,Mean Cell Count,"Table 6, 1 mg/L in basal medium",11.4 × 10^5
same,RGE,"Table 6, 1 mg/L, relative to 5% FBS control",49
same,RGE,"Table 6, 5 mg/L, relative to 5% FBS control",51
same,Mean Cell Count,"Table 6, 10 mg/L in basal medium",22.6 × 10^5
same,Mean Cell Count,"Table 7, 5 mg/L",20.2 × 10^5
same,RGE,"Table 7, 5 mg/L, relative to 5% FBS control",76
same,Mean Cell Count,"Table 7, 6 mg/L",19.3 × 10^5
same,RGE,"Table 7, 6 mg/L, relative to 5% FBS control",73
same,Mean Cell Count,"Table 7, 7 mg/L",19.6 × 10^5
same,RGE,"Table 7, 7 mg/L, relative to 5% FBS control",74
same,Mean Cell Count,"Table 7, 8 mg/1.",21.0 × 10^5
same,RGE,"Table 7, 8 mg/1., relative to 5% FBS control",79
same,Mean Cell Count,"Table 7, 9 mg/L",20.7 × 10^5
same,RGE,"Table 7, 9 mg/L, relative to 5% FBS control",78
same,Mean Cell Count,"Table 7, 10 mg/L",19.5 × 10^5
same,RGE,"Table 7, 10 mg/L, relative to 5% FBS control",73
same,RGE,"Table 8, 5 mg/L, as % of 0 mg/L control",137%
same,Mean Cell Count,"Table 8, 5 mg/L, mean cells per 25 cm^2 flask in duplicate over 4 subcultures",7.0 × 10^5
same,RGE,"Table 8, 6 mg/L, as % of 0 mg/L control",118%
same,Mean Cell Count,"Table 8, 6 mg/L, over 4 subcultures",6.0 × 10^5
same,RGE,"Table 8, 7 mg/L, as % of 0 mg/L control",139%
same,Mean Cell Count,"Table 8, 7 mg/L, over 4 subcultures",7.1 × 10^5
same,RGE,"Table 8, 8 mg/L, as % of 0 mg/L control",143%
same,Mean Cell Count,"Table 8, 8 mg/L, over 4 subcultures",7.3 × 10^5
same,RGE,"Table 8, 9 mg/L, as % of 0 mg/L control",145%
same,Mean Cell Count,"Table 8, 9 mg/L, over 4 subcultures",7.4 × 10^5
same,RGE,"Table 8, 10 mg/L, as % of 0 mg/L control",133%
same,Mean Cell Count,"Table 8, 10 mg/L, over 4 subcultures",6.8 × 10^5
